Values of other authors in US20220401509A1, “Composition For Improving Mental State, Production Method For Composition For Improving Mental State, And Use Of Fruit Of Eggplant For Improving Mental State” (SHINSHU UNIVERSITY, priority 2019, published 2022).

Key:
adult individuals = settings: according to the "Foods with Function Claims" in Japan
[1] = system: spontaneously hypertensive rats (SHRs); settings: purified, single oral dose to SHR

SMILES	effective dose for antihypertensive effect in adult individuals (adult individuals) [mg/day]	antihypertensive effect [1]
O=C(/C=C/c1ccc(O)c(O)c1)O[C@@H]1C[C@](O)(C(=O)O)C[C@@H](O)[C@H]1O [CA, chlorogenic acid]	271	
NCCCC(=O)O [GABA, γ-aminobutyric acid]	12.3	
CCCC(=O)OCC[N+](C)(C)C [butyrylcholine]		had an antihypertensive effect
CC(O)C(=O)OCC[N+](C)(C)C.[I-] (centres unmarked) [lactoylcholine]		had an antihypertensive effect
CCC(=O)OCC[N+](C)(C)C [propionylcholine]		had an antihypertensive effect
